{"source": "patent EP2501821B1", "about": "“PROCESS FOR PRODUCING PRIMYCIN, PRIMYCIN COMPONENT(S), PRECURSORS AND METABOLITES THEREOF VIA FEMENTATION BY THE USE OF BACTERIAL SPECIES SACCHAROMONOSPORA AZUREA” (Pannonpharma Gyógyszergyártó Kft., priority 2009, dated 2011)", "key": {"Bacillus sp.": {"system": "Bacillus sp.", "experiment": "primycin MIC, antimicrobial spectrum re-evaluation", "assay_type": "cell-based", "conditions": "culture collection strains", "source_text": "(§1) In our research leading to our new findings we assayed the antimicrobial spectrum of primycin in order to re-evaluate the minimal inhibitory concentration (MIC) values known from the literature and to determine the primycin susceptibility of new isolates. Comparative test results on strains of Gram-positive bacterial species of Microbial strain culture collection of PTE TTK BI Department of General and Environmental Microbiology were in agreement with the literature data with primycin MIC values of 0.06 mg/L for Staphylococcus sp. and 0.03 mg/L for Bacillus sp. respectively. Primycin MIC values higher than 1 mg/L for any of the Gram-positive strains tested were not detected."}, "Staphylococcus sp.": {"system": "Staphylococcus sp.", "experiment": "primycin MIC, antimicrobial spectrum re-evaluation", "assay_type": "cell-based", "conditions": "culture collection strains", "source_text": "as §1"}, "Gram-positive strains": {"system": "Gram-positive strains", "experiment": "primycin MIC, antimicrobial spectrum re-evaluation", "assay_type": "cell-based, Gram-positive bacterial species", "conditions": "any of the Gram-positive strains tested", "source_text": "as §1"}, "Gram-negative species": {"system": "Gram-negative species", "experiment": "primycin antimicrobial spectrum re-evaluation", "assay_type": "cell-based", "source_text": "as §1"}, "[1]": {"system": "strains of species belonging to Saccharomonospora genus", "experiment": "primycin MIC (primycin tolerance)", "assay_type": "cell-based"}, "S. cyanea (44106)": {"system": "S. cyanea (44106)", "experiment": "primycin MIC (primycin tolerance)", "assay_type": "cell-based", "conditions": "S. cyanea DSM 44106", "method": "(§2) Strains were grown for seven days and once the colonies were removed and extracted, they were tested for antimicrobial production in agar diffusion tests. […] For this comparison we repeatedly used the strains of the culture collection of Department which had preliminary been tested for primycin susceptibility. Our work hypothesis was further supported by our experience that a butanol-ethanol-water mixture (in the ratio of 1:1:2 respectively) which is an effective solvent of primycin was suitable for the extraction of the antibiotic. […] Thereafter we carried out shake flask fermentations with the Saccharomonospora sp. strains suitable for the process. Production results on shake flasks of the strains tested were congruent to their cultivations on solid media. […] Table 1. Primycin tolerance and antibiotic production of Saccharomonospora isolates. *: S. azurea strains identified and registered on the name S. caesia earlier: […]"}, "S. glauca (43769)": {"system": "S. glauca (43769)", "experiment": "primycin MIC (primycin tolerance)", "assay_type": "cell-based", "conditions": "S. glauca DSM 43769", "method": "as §2"}, "S. viridis (43017)": {"system": "S. viridis (43017)", "experiment": "primycin MIC (primycin tolerance)", "assay_type": "cell-based", "conditions": "S. viridis DSM 43017", "method": "as §2"}, "S. xinjiangensis (44391)": {"system": "S. xinjiangensis (44391)", "experiment": "primycin MIC (primycin tolerance)", "assay_type": "cell-based", "conditions": "S. xinjiangensis DSM 44391", "method": "as §2"}, "[2]": {"system": "Saccharomonospora azurea (caesia) DSM 43044", "experiment": "primycin MIC (primycin tolerance)", "assay_type": "cell-based", "conditions": "S. azurea (caesia) DSM 43044", "method": "as §2"}, "[3]": {"system": "Saccharomonospora azurea (caesia) DSM 43068", "experiment": "primycin MIC (primycin tolerance)", "assay_type": "cell-based", "conditions": "S. azurea (caesia) DSM 43068", "method": "as §2"}, "[4]": {"system": "Saccharomonospora azurea (caesia) DSM 43680", "experiment": "primycin MIC (primycin tolerance)", "assay_type": "cell-based", "conditions": "S. azurea (caesia) DSM 43680", "method": "as §2"}, "[5]": {"system": "Saccharomonospora azurea DSM 44631", "experiment": "primycin MIC (primycin tolerance)", "assay_type": "cell-based", "conditions": "S. azurea DSM 44631", "method": "as §2"}, "[6]": {"system": "Saccharomonospora aurea strains", "experiment": "primycin MIC (primycin tolerance), summary statement", "assay_type": "cell-based", "source_text": "As it is known that antibiotic-producing strains are less susceptible to the antibiotic produced by themselves and the primordials of the existing primycin-producing strain also was selected by primycin tolerance level to enhance their production capability, it has been suspected that lowered primycin susceptibility of Saccharomonospora azurea strains can be the outcome of the production of an antibiotic with a mode of action analogue to that of primycin. The literature concordantly states that primycin has a unique mode of action, therefore it could be suspected from our surprising findings that the antibiotic supposedly produced by these strains can be primycin itself. However, there is no literature on primycin production of Saccharomonospora azurea or any other presently accepted species of Saccharomonospora genera."}, "[7]": {"system": "Staphylococcus aureus (50 strains)", "conditions": "broth dilution assay; cited from earlier work"}, "[8]": {"system": "Staphylococcus epidermidis (77 strains)", "conditions": "broth dilution assay; cited from earlier work"}, "[9]": {"system": "Streptococcus faecalis (76 strains)", "conditions": "broth dilution assay; cited from earlier work"}, "[10]": {"system": "one strain of Listeria monocytogenes", "conditions": "broth dilution assay; cited from earlier work"}, "[11]": {"conditions": "in water; cited from earlier work"}, "[12]": {"system": "Gram-positive bacteria and Mycobacterium species", "conditions": "cited from earlier work"}, "in vitro cell cultures": {"system": "in vitro cell cultures", "conditions": "cited from earlier work"}}}
{"substance": "primycin", "values": [{"measurement": "MIC", "setting": "Bacillus sp.", "result": 0.03, "unit": "µg/mL"}, {"measurement": "MIC", "setting": "Staphylococcus sp.", "result": 0.06, "unit": "µg/mL"}, {"measurement": "MIC", "setting": "Gram-positive strains", "result": "≤ 1", "unit": "µg/mL"}, {"measurement": "effectiveness", "setting": "Gram-negative species", "result": "did not prove to be effective"}, {"measurement": "MIC", "setting": "[1]", "result": "8 to 64", "unit": "µg/mL"}, {"measurement": "Primycin MIC", "setting": "S. cyanea (44106)", "result": 8, "unit": "µg/mL"}, {"measurement": "Primycin MIC", "setting": "S. glauca (43769)", "result": 8, "unit": "µg/mL"}, {"measurement": "Primycin MIC", "setting": "S. viridis (43017)", "result": "0,5 mg/L"}, {"measurement": "Primycin MIC", "setting": "S. xinjiangensis (44391)", "result": 1, "unit": "µg/mL"}, {"measurement": "Primycin MIC", "setting": "[2]", "result": 64, "unit": "µg/mL"}, {"measurement": "Primycin MIC", "setting": "[3]", "result": 64, "unit": "µg/mL"}, {"measurement": "Primycin MIC", "setting": "[4]", "result": 64, "unit": "µg/mL"}, {"measurement": "Primycin MIC", "setting": "[5]", "result": 64, "unit": "µg/mL"}, {"measurement": "MIC", "setting": "[6]", "result": 64, "unit": "µg/mL"}, {"measurement": "minimal inhibitory concentrations (MIC)", "setting": "[7]", "result": "0.12 to 0.5", "unit": "µg/mL"}, {"measurement": "minimal inhibitory concentrations (MIC)", "setting": "[8]", "result": "0.12 to 0.5", "unit": "µg/mL"}, {"measurement": "minimal inhibitory concentrations (MIC)", "setting": "[9]", "result": "0.12 to 0.5", "unit": "µg/mL"}, {"measurement": "minimal inhibitory concentrations (MIC)", "setting": "[10]", "result": "0.12 to 0.5", "unit": "µg/mL"}, {"measurement": "solubility", "setting": "[11]", "result": "poorly soluble in water"}, {"measurement": "bacteriostatic effect", "setting": "[12]", "result": "has bacteriostatic effect"}, {"measurement": "toxicity", "setting": "in vitro cell cultures", "result": "not shown to be toxic"}]}
